What all share (assay type): cell-based
The subject of assay [1] is Plasmodium falciparum clone CDC/Indochina III (W-2). Kind of assay: In vitro antimalarial [3H]-hypoxanthine incorporation serial dilution assay, W2. The settings on record: P. falciparum W2, parasites exposed for 72 hours; for IC50: Plasmodium falciparum, W2, 72 h. The source says: (§1) The in vitro screens for intrinsic antimalarial activity were based on modifications of the procedures described by Desjardins R E, Canfield C J, Haynes J D, Chulay J D. (Quantitative assessment of antimalarial activity in vitro by a semiautomated microdilution technique. Antimicrob Agents Chemother. 1979 December; 16(6):710-8), Chulay J D, Haynes J D, Diggs C L. (Plasmodium falciparum: Assessment of in vitro growth by [3H]hypoxanthine incorporation. Exp. Parasitol. 1983 55:138-146), and Milhous W K, Weatherly N F, Bowdre J H, Desjardins R E. (In vitro activities of and mechanisms of resistance to antifol antimalarial drugs. Antimicrob Agents Chemother. 1985 April; 27(4):525-30). The system was limited to the assessment of the intrinsic activity against the erythrocytic asexual life cycle (blood schizontocides). Two Plasmodium falciparum clones from CDC/Indochina III (W-2) and CDC/Sierra Leone I (D-6) (Oduola A M, Weatherly N F, Bowdre J H, Desjardins R E. Plasmodium falciparum: cloning by single-erythrocyte micromanipulation and heterogeneity in vitro. Exp Parasitol. 1988 66(1):86-95) were used for all assays. TM91C235, a multiple drug resistant isolate from Thailand, was used for the prescreening assay. W-2 is resistant to chloroquine, quinine, and pyrimethamine and susceptible to mefloquine. D-6 tends to be more resistant to mefloquine and susceptible to chloroquine, quinine, and pyrimethamine. All documents cited in this paragraph are incorporated by reference in their entirety.
(§2) All parasites were maintained in continuous long term cultures in RPMI-1640 medium supplemented with 6% washed human A positive (A+) (erythrocytes, 25 mM Hepes, […], and 10% heat inactivated A+ human plasma or ALBUMAX® (lipid-rich bovine serum albumin; Invitrogen, Carlsbad, Calif.). All cultures and assays were conducted at 37° C. under an atmosphere of 5% CO2 and 5% O2, with a balance of N2.
(§3) The prescreening assay uses TM91C235 diluted at a 0.4% parasitemia in a 1% hematocrit in folic acid free and p-aminobenzoic acid free media RPMI-1640 and ALBUMAX®. One mg of the compound is typically dissolved in 100 μl of dimethyl sulfoxide (DMSO). The compound is further diluted in culture medium (FF) with ALBUMAX® for the first initial starting concentration. The rest of the stock drug solution was kept at −70° C. The isolate was preexposed, in duplicate, at three concentrations (25,000 ng/ml, 2,500 ng/ml, and 25 ng/ml) of the test compound for 48 hr in a 96-well microtiter plate (MTP) using the BIOMEK® 2000 automated laboratory workstation. Each MTP contains chloroquine as control to assess the relative activity of the compound and to monitor the response of TM91C235.
(§4) After the preincubation, [^3H]-hypoxanthine was added to each well of the MTP. (The assay relies on the incorporation of radiolabeled hypoxanthine by the parasites, which indicates reproduction, and inhibition of isotope incorporation was attributed to activity of known or candidate antimalarial drugs). After 72 hr of total incubation time, the MTP were frozen to lyse the erythrocytes and parasites. The parasite DNA was recovered by harvesting the lysate onto glass-fiber filter plates using a Packard FilterMate™ Cell Harvester. The radioactivity was counted on a Packard TopCount™ microplate scintillation counter. The results were recorded as counts per minutes (CPM) per well at each drug concentration divided by the arithmetic mean of the CPM from the three untreated infection parasite control wells.
(§5) The serial dilution assay was conducted using the same assay conditions and stock solution of the compound used for the preliminary screen, described above. Both the D-6 and the W-2 clones were used. The compounds were diluted two-fold over 11 different concentration ranges with a starting concentration that was based on the preliminary screen. […]

The subject of assay [2] is Plasmodium falciparum clone CDC/Sierra Leone I (D-6). In words: In vitro antimalarial [3H]-hypoxanthine incorporation serial dilution assay, D6. The settings on record: P. falciparum D6, parasites exposed for 72 hours; for IC50: Plasmodium falciparum.
Excerpt: as §1, §2, §3, §4, §5

Assay [3] deals with Plasmodium falciparum TM91C235. Kind of assay: In vitro antimalarial [3H]-hypoxanthine incorporation serial dilution assay, TM91C235. The settings on record: P. falciparum TM91C235, parasites exposed for 72 hours; for IC50: Plasmodium falciparum.

Values after ≈ are worked out from the molar mass of the structure shown. Where only a bound is given, the exact number is not on record here.

The IC50 is the concentration that gives 50% inhibition.

On to `CC[C@H]1OC(=O)[C@H](C)[C@@H](O[C@H]2C[C@@](C)(OC)[C@@H](O)[C@H](C)O2)[C@H](C)[C@@H](O[C@@H]2O[C@H](C)C[C@H](N(C)C)[C@H]2O)[C@](C)(O)C[C@@H](C)CN(CCCN(CCC#N)C(=O)Nc2cccc3ccccc23)[C@H](C)[C@@H](O)[C@]1(C)O` [Compound 15], for which the figures for the IC50 in assay [1], in assay [2] and in assay [3] were 1.42 µg/mL (≈ 1.4 µM), 0.539 µg/mL (≈ 0.531 µM) and 0.263 µg/mL (≈ 0.259 µM), respectively.
For `CC[C@H]1OC(=O)[C@H](C)[C@@H](O[C@H]2C[C@@](C)(OC)[C@@H](O)[C@H](C)O2)[C@H](C)[C@@H](O[C@@H]2O[C@H](C)C[C@H](N(C)C)[C@H]2O)[C@](C)(O)C[C@@H](C)CN(CCCN(CCC#N)C(=O)Nc2cc(OC)c(OC)c(OC)c2)[C@H](C)[C@@H](O)[C@]1(C)O` [Compound 16] the same measures were above 1.76 µg/mL, 0.487 µg/mL (≈ 0.462 µM) and 0.272 µg/mL (≈ 0.258 µM).
On to `CC[C@H]1OC(=O)[C@H](C)[C@@H](O[C@H]2C[C@@](C)(OC)[C@@H](O)[C@H](C)O2)[C@H](C)[C@@H](O[C@@H]2O[C@H](C)C[C@H](N(C)C)[C@H]2O)[C@](C)(O)C[C@@H](C)CN(CCCNC(=O)NCc2ccccc2)[C@H](C)[C@@H](O)[C@]1(C)O` [Compound 17], for which the IC50 worked out at 0.351 µg/mL (≈ 0.379 µM) in assay [1], 0.566 µg/mL (≈ 0.612 µM) in assay [2] and 0.278 µg/mL (≈ 0.3 µM) in assay [3].
For `CC[C@H]1OC(=O)[C@H](C)[C@@H](O[C@H]2C[C@@](C)(OC)[C@@H](O)[C@H](C)O2)[C@H](C)[C@@H](O[C@@H]2O[C@H](C)C[C@H](N(C)C)[C@H]2O)[C@](C)(O)C[C@@H](C)CN(CCCN(CCC#N)C(=O)NCc2ccccc2)[C@H](C)[C@@H](O)[C@]1(C)O` [Compound 18] the same measures were 0.405 µg/mL (≈ 0.414 µM), 0.776 µg/mL (≈ 0.793 µM) and 0.522 µg/mL (≈ 0.534 µM).
Take `CC[C@H]1OC(=O)[C@H](C)[C@@H](O[C@H]2C[C@@](C)(OC)[C@@H](O)[C@H](C)O2)[C@H](C)[C@@H](O[C@@H]2O[C@H](C)C[C@H](N(C)C)[C@H]2O)[C@](C)(O)C[C@@H](C)CN(CCCN(CCC#N)C(=O)NC(C)C)[C@H](C)[C@@H](O)[C@]1(C)O` [Compound 19]: the IC50 in assay [1] was above 1.76 µg/mL; in assay [2], above 0.797 µg/mL; in assay [3] it was 1.19 µg/mL (≈ 1.28 µM).
The like results for `CC[C@H]1OC(=O)[C@H](C)[C@@H](O[C@H]2C[C@@](C)(OC)[C@@H](O)[C@H](C)O2)[C@H](C)[C@@H](O[C@@H]2O[C@H](C)C[C@H](N(C)C)[C@H]2O)[C@](C)(O)C[C@@H](C)CN(CCCNC(=O)NS(=O)(=O)c2ccc(C)cc2)[C@H](C)[C@@H](O)[C@]1(C)O` [Compound 20] were, in that order, above 1.76 µg/mL, above 0.797 µg/mL and 1.06 µg/mL (≈ 1.07 µM).
`CC[C@H]1OC(=O)[C@H](C)[C@@H](O[C@H]2C[C@@](C)(OC)[C@@H](O)[C@H](C)O2)[C@H](C)[C@@H](O[C@@H]2O[C@H](C)C[C@H](N(C)C)[C@H]2O)[C@](C)(O)C[C@@H](C)CN(CCCNC(=O)NS(=O)(=O)c2ccccc2C)[C@H](C)[C@@H](O)[C@]1(C)O` [Compound 21]: the IC50 in assay [1] was 1 µg/mL (≈ 1.01 µM); in assay [2] it was 0.427 µg/mL (≈ 0.432 µM); in assay [3], above 1.62 µg/mL.
As for `CC[C@H]1OC(=O)[C@H](C)[C@@H](O[C@H]2C[C@@](C)(OC)[C@@H](O)[C@H](C)O2)[C@H](C)[C@@H](O[C@@H]2O[C@H](C)C[C@H](N(C)C)[C@H]2O)[C@](C)(O)C[C@@H](C)CN(CCCNC(=O)NS(=O)(=O)c2ccccc2Cl)[C@H](C)[C@@H](O)[C@]1(C)O` [Compound 22], the IC50 is above 1.76 µg/mL in assay [1], above 0.797 µg/mL in assay [2] and 1.53 µg/mL (≈ 1.52 µM) in assay [3].
For `CC[C@H]1OC(=O)[C@H](C)[C@@H](O[C@H]2C[C@@](C)(OC)[C@@H](O)[C@H](C)O2)[C@H](C)[C@@H](O[C@@H]2O[C@H](C)C[C@H](N(C)C)[C@H]2O)[C@](C)(O)C[C@@H](C)CN(CCCN(CCC#N)C(=O)Nc2ccccc2C(F)(F)F)[C@H](C)[C@@H](O)[C@]1(C)O` [Compound 23] the same measures were 0.0626 µg/mL (≈ 0.0606 µM), 0.535 µg/mL (≈ 0.518 µM) and 0.153 µg/mL (≈ 0.148 µM).
With `CC[C@H]1OC(=O)[C@H](C)[C@@H](O[C@H]2C[C@@](C)(OC)[C@@H](O)[C@H](C)O2)[C@H](C)[C@@H](O[C@@H]2O[C@H](C)C[C@H](N(C)C)[C@H]2O)[C@](C)(O)C[C@@H](C)CN(CCCN(CCC#N)C(=O)Nc2cc(OC)c(OC)c(OC)c2)[C@H](C)[C@@H](O)[C@]1(C)O` [Compound 24], in assay [1], the “IC50 W2” value was 1.7881 µg/mL (≈ 1.7 µM). The “IC50 D6” value in assay [2] stood at 0.4872 µg/mL (≈ 0.462 µM). The “IC50 TM91C235” value in assay [3] came out at 0.2719 µg/mL (≈ 0.258 µM).
In the case of `CC[C@H]1OC(=O)[C@H](C)[C@@H](O)[C@H](C)[C@@H](O[C@@H]2O[C@H](C)C[C@H](N(C)C)[C@H]2O)[C@](C)(O)C[C@@H](C)CN(CCCNC(=S)NCc2ccccc2)[C@H](C)[C@@H](O)[C@]1(C)O` [Compound 25], the IC50 in assay [1] is above 1.76 µg/mL; in assay [2], above 0.797 µg/mL; in assay [3] it was 1.21 µg/mL (≈ 1.54 µM).
With `CC[C@H]1OC(=O)[C@H](C)[C@@H](O)[C@H](C)[C@@H](O[C@@H]2O[C@H](C)C[C@H](N(C)C)[C@H]2O)[C@](C)(O)C[C@@H](C)CN(CCCN(CCC#N)C(=O)NC(C)c2cccc3ccccc23)[C@H](C)[C@@H](O)[C@]1(C)O` (stereo partly drawn) [Compound 26], the results for the half-inhibitory concentration (IC50) in assay [1], in assay [2] and in assay [3] were 0.361 µg/mL (≈ 0.408 µM), above 0.797 µg/mL and 0.39 µg/mL (≈ 0.441 µM), respectively.
The like results for `CC[C@H]1OC(=O)[C@H](C)[C@@H](O)[C@H](C)[C@@H](O[C@@H]2O[C@H](C)C[C@H](N(C)C)[C@H]2O)[C@](C)(O)C[C@@H](C)CN(CCCNC(=O)Nc2ccc3ccccc3c2)[C@H](C)[C@@H](O)[C@]1(C)O` [Compound 27] were, in that order, 0.467 µg/mL (≈ 0.582 µM), 0.716 µg/mL (≈ 0.891 µM) and 0.312 µg/mL (≈ 0.389 µM).
The like results for `CC[C@H]1OC(=O)[C@H](C)[C@@H](O)[C@H](C)[C@@H](O[C@@H]2O[C@H](C)C[C@H](N(C)C)[C@H]2O)[C@](C)(O)C[C@@H](C)CN(CCCNC(=S)NCCCc2ccccc2)[C@H](C)[C@@H](O)[C@]1(C)O` [Compound 28] were, in that order, 0.41 µg/mL (≈ 0.506 µM), 0.864 µg/mL (≈ 1.06 µM) and 0.255 µg/mL (≈ 0.314 µM).
As to `CC[C@H]1OC(=O)[C@H](C)[C@@H](O)[C@H](C)[C@@H](O[C@@H]2O[C@H](C)C[C@H](N(C)C)[C@H]2O)[C@](C)(O)C[C@@H](C)CN(CCCNC(=S)Nc2cccc3ccccc23)[C@H](C)[C@@H](O)[C@]1(C)O` [Compound 29], the IC50 in assay [1] came to 0.172 µg/mL (≈ 0.21 µM); in assay [2] it was 0.954 µg/mL (≈ 1.16 µM); in assay [3], 0.297 µg/mL (≈ 0.363 µM).
The like results for `CC[C@H]1OC(=O)[C@H](C)[C@@H](O)[C@H](C)[C@@H](O[C@@H]2O[C@H](C)C[C@H](N(C)C)[C@H]2O)[C@](C)(O)C[C@@H](C)CN(CCCNC(=O)Nc2cccc3ccccc23)[C@H](C)[C@@H](O)[C@]1(C)O` [Compound 30] were, in that order, 0.471 µg/mL (≈ 0.586 µM), above 0.797 µg/mL and 0.508 µg/mL (≈ 0.633 µM).
